Assay type in all cases: biochemical, Hepatitis C virus
Assay [1] concerns the target T1, GT1a D168A NS3/4A protease (UniProt P27958, D1194A, species not given).
T1 construct: rows headed: Ki (nM) D168A; Ki D168A; other: D168A variant
The method in brief:
(§1)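 Enzyme (GT1a wild type or D168A mutant, 2 nM) was preincubated with inhibitor dilutions for 1 h at room temperature in pH 7.5 Tris buffer with glycerol, DTT, LDAO and 4% DMSO.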

Assay [2] concerns the target GT1a D168A NS3/4A protease. To be noted: fold change in Ki, D168A relative to WT. The gist of the method:
as §1

In assay [3] the target is T2, wild-type GT1a NS3/4A protease (UniProt P27958).
T2 construct: Ki WT; other: wild-type HCV NS3/4A protease
The method in brief:
as §1

Assay [4] deals with GT1a R155K NS3/4A protease (UniProt P27958, R1181K, species not given). As to the method:
(§2) For each assay, 2 nM of NS3/4A protease (GT1a, R155K and D168A) was pre-incubated at room temperature for 1 h with increasing concentration of inhibitors in assay buffer (50 mM Tris, 5% glycerol, 10 mM DTT, 0.6 mM LDAO, and 4% dimethyl sulfoxide, pH 7.5). Inhibition assays were performed in non-binding surface 96-well black half-area plates (Corning) in a reaction volume of 60 μL. […] Three independent data sets were collected for each inhibitor with each protease construct. […] Gibbs free energy of binding was calculated using the following equation: ΔG=RTlnKi

Assay [5] has as its target GT1a R155K NS3/4A protease. To be noted: fold change in Ki, R155K relative to WT. As to the method:
as §2

Where [6] appears, read: read-out: Ki (nM) D168A, Table 8, linear inhibitors.
The mark [7] stands for this setting: read-out: Ki D168A, D168A variant.
Setting [8] is: read-out: Ki (nM) WT, Table 8, linear inhibitors.
Setting [9] is: read-out: Ki WT, wild-type HCV NS3/4A protease.
Where [10] appears, read: read-out: Ki (nM) R155K, Table 8, linear inhibitors.
The mark [11] stands for this setting: read-out: Ki R155K, R155K variant.

Where two headings read alike, the source gives them in different places.

Consider `C=C[C@@H]1C[C@]1(NC(=O)[C@@H]1C[C@@H](Oc2nc3cc(OC)ccc3nc2C(C)C)CN1C(=O)[C@@H](NC(=O)OC(C)(C)C)C(C)(C)C)C(=O)NS(=O)(=O)C1(C)CC1` [Compound 10c, tert-Butyl ((S)-1-((2S,4R)-4-((3-isopropyl-7-methoxyquinoxalin-2-yl)oxy)-2-(((1R,2S)-1-(((1-methylcyclopropyl)sulfonyl)carbamoyl)-2-vinylcyclopropyl)carbamoyl)pyrrolidin-1-yl)-3,3-dimethyl-1-oxobutan-2-yl)carbamate], for which the Ki in assay [1] (setting [6]) was 1180 ± 170 nM; in assay [1] (setting [7]), 1180 ± 170 nM; in assay [3] (setting [8]), 29 ± 9.4 nM; in assay [3] (setting [9]), 29 ± 9.4 nM; in assay [4] (setting [10]), 27 ± 5.6 nM; in assay [4] (setting [11]) it was 27 ± 5.6 nM. Also, the “Ki D168A (fold change)” value in assay [2] is 41. Moreover, the “Ki R155K (fold change)” value in assay [5] was determined as 0.9.
For `C=C[C@@H]1C[C@]1(NC(=O)[C@@H]1C[C@@H](Oc2nc3cc(OC)ccc3nc2C(F)(F)F)CN1C(=O)[C@@H](NC(=O)OC(C)(C)C)C(C)(C)C)C(=O)NS(=O)(=O)C1(C)CC1` [Compound 10e, tert-Butyl ((S)-1-((2S,4R)-4-((7-methoxy-3-(trifluoromethyl)quinoxalin-2-yl)oxy)-2-(((1R,2S)-1-(((1-methylcyclopropyl)sulfonyl)carbamoyl)-2-vinylcyclopropyl)carbamoyl)pyrrolidin-1-yl)-3,3-dimethyl-1-oxobutan-2-yl)carbamate], the Ki is 513 ± 50 nM in assay [1] (setting [6]); 513 ± 50 nM in assay [1] (setting [7]); 46 ± 9.6 nM in assay [3] (setting [8]); 46 ± 9.6 nM in assay [3] (setting [9]); 12 ± 1.7 nM in assay [4] (setting [10]); 12 ± 1.7 nM in assay [4] (setting [11]). Besides, the “Ki D168A (fold change)” value in assay [2] is reported as 11. In addition, in assay [5], the “Ki R155K (fold change)” value was 0.3.
Take `C=C[C@@H]1C[C@]1(NC(=O)[C@@H]1C[C@@H](Oc2nc3cc(OC)ccc3nc2CC)CN1C(=O)[C@@H](NC(=O)OC1CCCC1)C(C)(C)C)C(=O)NS(=O)(=O)C1CC1` [Compound 11a, Cyclopentyl ((S)-1-((2S,4R)-2-(((1R,2S)-1-((cyclopropylsulfonyl)carbamoyl)-2-vinylcyclopropyl)carbamoyl)-4-((3-ethyl-7-methoxyquinoxalin-2-yl)oxy)pyrrolidin-1-yl)-3,3-dimethyl-1-oxobutan-2-yl)carbamate]: the Ki in assay [1] (setting [6]) is 350 ± 30 nM; in assay [1] (setting [7]), 350 ± 30 nM; in assay [3] (setting [8]), 9.8 ± 2 nM; in assay [3] (setting [9]), 9.8 ± 2 nM; in assay [4] (setting [10]) it was 15 ± 2.2 nM; in assay [4] (setting [11]) it was 15 ± 2.2 nM. Further, the “Ki D168A (fold change)” value in assay [2] worked out at 36. Besides, the “Ki R155K (fold change)” value in assay [5] came out at 1.5.
With `C=C[C@@H]1C[C@]1(NC(=O)[C@@H]1C[C@@H](Oc2nc3cc(OC)ccc3nc2C(C)C)CN1C(=O)[C@@H](NC(=O)OC1CCCC1)C(C)(C)C)C(=O)NS(=O)(=O)C1CC1` [Compound 11c, Cyclopentyl ((S)-1-((2S,4R)-2-(((1R,2S)-1-((cyclopropylsulfonyl)carbamoyl)-2-vinylcyclopropyl)carbamoyl)-4-((3-isopropyl-7-methoxyquinoxalin-2-yl)oxy)pyrrolidin-1-yl)-3,3-dimethyl-1-oxobutan-2-yl)carbamate], the Ki in assay [1] (setting [6]) stood at 985 ± 106 nM; in assay [1] (setting [7]) it was 985 ± 106 nM; in assay [3] (setting [8]) it was 17 ± 3.2 nM; in assay [3] (setting [9]), 17 ± 3.2 nM; in assay [4] (setting [10]) it was 55 ± 11 nM; in assay [4] (setting [11]), 55 ± 11 nM. The “Ki D168A (fold change)” value in assay [2] turned out to be 58. For the same compound, in assay [5], the “Ki R155K (fold change)” value was 3.
As for `C=C[C@@H]1C[C@]1(NC(=O)[C@@H]1C[C@@H](Oc2nc3cc(OC)ccc3nc2C(F)(F)F)CN1C(=O)[C@@H](NC(=O)OC1CCCC1)C(C)(C)C)C(=O)NS(=O)(=O)C1CC1` [Compound 11e, Cyclopentyl ((S)-1-((2S,4R)-2-(((1R,2S)-1-((cyclopropylsulfonyl)carbamoyl)-2-vinylcyclopropyl)carbamoyl)-4-((7-methoxy-3-(trifluoromethyl)quinoxalin-2-yl)oxy)pyrrolidin-1-yl)-3,3-dimethyl-1-oxobutan-2-yl)carbamate], the inhibition constant (Ki) in assay [1] (setting [6]) amounted to 703 ± 63 nM; in assay [1] (setting [7]), 703 ± 63 nM; in assay [3] (setting [8]), 34 ± 8.3 nM; in assay [3] (setting [9]), 34 ± 8.3 nM; in assay [4] (setting [10]), 26 ± 7.7 nM; in assay [4] (setting [11]), 26 ± 7.7 nM. In assay [2], the “Ki D168A (fold change)” value was 21. Moreover, in assay [5], the “Ki R155K (fold change)” value worked out at 0.8.
For `C=C[C@@H]1C[C@]1(NC(=O)[C@@H]1C[C@@H](Oc2nc3cc(OC)ccc3nc2CC)CN1C(=O)[C@@H](NC(=O)OC1CCCC1)C(C)(C)C)C(=O)NS(=O)(=O)C1(C)CC1` [Compound 12a, Cyclopentyl ((S)-1-((2S,4R)-4-((3-ethyl-7-methoxyquinoxalin-2-yl)oxy)-2-(((1R,2S)-1-(((1-methylcyclopropyl)sulfonyl)carbamoyl)-2-vinylcyclopropyl)carbamoyl)pyrrolidin-1-yl)-3,3-dimethyl-1-oxobutan-2-yl)carbamate], the Ki in assay [1] (setting [6]) turned out to be 145 nM; in assay [1] (setting [7]), 145 ± 14 nM; in assay [3] (setting [8]), 6.9 nM; in assay [3] (setting [9]), 6.9 ± 0.5 nM; in assay [4] (setting [10]) it was 13 ± 2.7 nM; in assay [4] (setting [11]), 13 ± 2.7 nM. The “Ki D168A (fold change)” value in assay [2] is 21. Also, the “Ki R155K (fold change)” value in assay [5] worked out at 1.9.
In the case of `C=C[C@@H]1C[C@]1(NC(=O)[C@@H]1C[C@@H](Oc2nc3cc(OC)ccc3nc2C(C)C)CN1C(=O)[C@@H](NC(=O)OC1CCCC1)C(C)(C)C)C(=O)NS(=O)(=O)C1(C)CC1` [Compound 12c, Cyclopentyl ((S)-1-((2S,4R)-4-((3-isopropyl-7-methoxyquinoxalin-2-yl)oxy)-2-(((1R,2S)-1-(((1-methylcyclopropyl)sulfonyl)carbamoyl)-2-vinylcyclopropyl)carbamoyl)pyrrolidin-1-yl)-3,3-dimethyl-1-oxobutan-2-yl)carbamate], the Ki in assay [1] (setting [6]) came out at 1000 ± 80 nM; in assay [1] (setting [7]), 1000 ± 80 nM; in assay [3] (setting [8]) it was 21 ± 2.6 nM; in assay [3] (setting [9]) it was 21 ± 2.6 nM; in assay [4] (setting [10]) it was 43 ± 11 nM; in assay [4] (setting [11]), 43 ± 11 nM. Further, in assay [2], the “Ki D168A (fold change)” value worked out at 48. In assay [5], the “Ki R155K (fold change)” value was 2.0.
With `C=C[C@@H]1C[C@]1(NC(=O)[C@@H]1C[C@@H](Oc2nc3cc(OC)ccc3nc2C(F)(F)F)CN1C(=O)[C@@H](NC(=O)OC1CCCC1)C(C)(C)C)C(=O)NS(=O)(=O)C1(C)CC1` [Compound 12e, Cyclopentyl ((S)-1-((2S,4R)-4-((7-methoxy-3-(trifluoromethyl)quinoxalin-2-yl)oxy)-2-(((1R,2S)-1-(((1-methylcyclopropyl)sulfonyl)carbamoyl)-2-vinylcyclopropyl)carbamoyl)pyrrolidin-1-yl)-3,3-dimethyl-1-oxobutan-2-yl)carbamate], the Ki in assay [1] (setting [6]) worked out at 516 ± 61 nM; in assay [1] (setting [7]) it was 516 ± 61 nM; in assay [3] (setting [8]), 22 ± 3.4 nM; in assay [3] (setting [9]), 22 ± 3.4 nM; in assay [4] (setting [10]), 22 ± 6.9 nM; in assay [4] (setting [11]), 22 ± 6.9 nM. In addition, the “Ki D168A (fold change)” value in assay [2] is given as 24. Also, the “Ki R155K (fold change)” value in assay [5] came to 1.0.

The values above are taken from US11472778B2, “Hepatitis C virus NS3/4A protease inhibitors” (priority 2017, dated 2022).
